This note sets out measurements from ChEMBL document CHEMBL5500389, “Discovery of the Selective and Orally Available Galectin-1 Inhibitor GB1908 as a Potential Treatment for Lung Cancer” (J Med Chem, 2024).

Data set [1] is described as follows: Efflux ratio of apparent permeability across apical to basal side over basal to apical side in human Caco-2 cells at 10 uM incubated for 90 mins by LC-MS/MS analysis.
Data set [2] is described as follows: Apparent permeability across apical to basal side in human Caco-2 cells at 10 uM incubated for 90 mins by LC-MS/MS analysis.
Data set [3] addresses T1, Galectin-1 (Homo sapiens, UniProt P09382). Briefly: Binding affinity to human galectin-1 assessed as dissociation constant by fluorescein probe based fluorescence polarization assay.
Data set [4] in a line: physchem. The following applies: octanol/potassium phosphate buffer, pH 7.4.
The nature of data set [5]: Apparent permeability across basal to apical side in human Caco-2 cells at 10 uM incubated for 90 mins by LC-MS/MS analysis.
Data set [6] concerns the target T2, Galectin-3 (Mus musculus, UniProt P16110). Briefly: Binding affinity to CM3 chip-immobilized full-length mouse galectin-3 assessed as dissociation constant by SPR analysis.
For data set [7], the system named is Lewis lung carcinoma. Briefly: Antitumor activity against mouse LL2 cells allografted in syngeneic mouse C57BL/6N assessed as inhibition of tumor growth at 30 mg/kg, po bid administered via gavage measured for 3 to 21 days. Type of data set: functional, organism-based. The following applies: time 3-21 day.
The target of data set [8] is Galectin-7 (Homo sapiens, UniProt P47929). Nature of the data set: Inhibition of human galectin-7 by competitive fluorescence polarization assay.
Chain of Galectin-7 (P47929 whole entry): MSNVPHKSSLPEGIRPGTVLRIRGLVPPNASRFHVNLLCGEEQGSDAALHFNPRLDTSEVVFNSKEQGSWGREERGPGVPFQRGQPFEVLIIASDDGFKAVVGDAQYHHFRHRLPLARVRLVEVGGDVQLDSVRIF
In data set [9] the target is T3, Galectin-4 (Homo sapiens, UniProt P56470).
T3 sequence (P56470 whole entry): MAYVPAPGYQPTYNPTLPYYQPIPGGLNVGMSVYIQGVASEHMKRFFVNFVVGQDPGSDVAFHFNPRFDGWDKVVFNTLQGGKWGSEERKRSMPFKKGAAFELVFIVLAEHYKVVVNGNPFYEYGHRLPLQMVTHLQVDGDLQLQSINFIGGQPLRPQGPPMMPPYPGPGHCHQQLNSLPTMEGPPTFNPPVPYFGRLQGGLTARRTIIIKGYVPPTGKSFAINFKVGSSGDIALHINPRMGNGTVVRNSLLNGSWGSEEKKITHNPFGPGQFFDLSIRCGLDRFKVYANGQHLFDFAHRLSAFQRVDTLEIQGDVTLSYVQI
Nature of the data set: Inhibition of C-terminal human galectin-4 by competitive fluorescence polarization assay.

Data set [10] deals with Lewis lung carcinoma. Nature of the data set: Antitumor activity against mouse LL2 cells allografted in syngeneic mouse C57BL/6N assessed as reduction in tumor volume at 30 mg/kg, po bid administered via gavage measured after 10 days. Type of data set: functional, organism-based. The conditions noted are these: time 10.0 day.
Data set [11] addresses T4, Galectin-3 (Homo sapiens, UniProt P17931). Briefly: Binding affinity to CM3 chip-immobilized full-length human galectin-3 assessed as dissociation constant by SPR analysis.
For data set [12], the target named is T2, Galectin-3. Nature of the data set: Binding affinity to mouse galectin-3 assessed as dissociation constant by fluorescein probe based fluorescence polarization assay.
Data set [13] in a line: Stability in human hepatocytes assessed as hepatic intrinsic clearance at 2 uM measured per million cells for 15 to 120 mins by LC-MS/MS analysis. The conditions noted are these: time 15-120 min, read-out: CLH. The class given is ADME, cell-based, Hepatocyte.
Data set [14] in a line: Clearance in C57BL/6 mouse at 1 mg/kg, iv measured for 24 hrs by HPLC analysis. The class given is ADME, organism-based. The following applies: in vivo.
Data set [15] concerns Jurkat. Briefly: Inhibition of apoptosis in galectin-1-induced human Jurkat cells measured after 16 hrs by caspase-3/7 green fluorescence based analysis.
The target of data set [16] is T3, Galectin-4. Nature of the data set: Inhibition of N-terminal human galectin-4 by competitive fluorescence polarization assay.
The target of data set [17] is T5, Galectin-1 (Mus musculus, UniProt P16045). Nature of the data set: Binding affinity to CM3 chip-immobilized full-length mouse galectin-1 assessed as dissociation constant by SPR analysis.
T5 sequence (P16045 whole entry): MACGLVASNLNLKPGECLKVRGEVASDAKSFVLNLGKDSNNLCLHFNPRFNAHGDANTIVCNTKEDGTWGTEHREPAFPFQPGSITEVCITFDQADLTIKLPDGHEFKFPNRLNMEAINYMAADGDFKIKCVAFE
The test system of data set [18] is A549. Nature of the data set: Cytotoxicity against human A549 cells assessed as reduction in cell viability at >90 uM by MTT assay relative to control. Type of data set: functional.
The target in data set [19] is T6, Galectin-8 (Homo sapiens, UniProt O00214).
T6 sequence (O00214 whole entry): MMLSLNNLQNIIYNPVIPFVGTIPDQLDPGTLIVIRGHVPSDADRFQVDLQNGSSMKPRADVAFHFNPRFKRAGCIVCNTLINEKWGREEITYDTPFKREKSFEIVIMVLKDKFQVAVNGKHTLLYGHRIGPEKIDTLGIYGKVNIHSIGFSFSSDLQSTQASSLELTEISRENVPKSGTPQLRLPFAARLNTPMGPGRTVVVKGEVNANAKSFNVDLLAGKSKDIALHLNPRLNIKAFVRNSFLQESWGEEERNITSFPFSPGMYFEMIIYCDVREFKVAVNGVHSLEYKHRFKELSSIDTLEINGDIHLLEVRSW
Briefly: Inhibition of C-terminal human galectin-8 by competitive fluorescence polarization assay.

Data set [20] in a line: Unbound fraction in human plasma at 1 uM incubated for 5 hrs by equilibrium dialysis method. The class given is ADME, cell-free.
The nature of data set [21]: Volume of distribution at steady state in C57BL/6 mouse at 1 mg/kg, iv measured for 24 hrs by HPLC analysis. The class given is ADME, organism-based. The following applies: in vivo, read-out: Vdss.
The nature of data set [22]: Unbound fraction in mouse plasma at 1 uM incubated for 5 hrs by equilibrium dialysis method. The class given is ADME, cell-free.
Data set [23] concerns Jurkat. Briefly: Inhibition of apoptosis in galectin-3-induced human Jurkat cells measured after 16 hrs by caspase-3/7 green fluorescence based analysis.
In data set [24] the target is T7, Galectin-9 (Homo sapiens, UniProt O00182). Nature of the data set: Inhibition of C-terminal human galectin-9 by competitive fluorescence polarization assay.
T7 sequence (O00182 whole entry): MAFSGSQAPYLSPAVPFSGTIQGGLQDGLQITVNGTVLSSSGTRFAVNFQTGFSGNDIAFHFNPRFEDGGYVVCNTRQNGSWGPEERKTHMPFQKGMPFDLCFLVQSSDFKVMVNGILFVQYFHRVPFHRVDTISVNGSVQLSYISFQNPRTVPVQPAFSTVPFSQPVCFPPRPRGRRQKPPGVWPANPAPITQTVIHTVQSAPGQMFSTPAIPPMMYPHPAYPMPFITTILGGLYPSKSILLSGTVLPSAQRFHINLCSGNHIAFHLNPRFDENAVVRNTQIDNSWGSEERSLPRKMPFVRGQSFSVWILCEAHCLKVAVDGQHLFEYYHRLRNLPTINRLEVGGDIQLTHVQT
Data set [25] can be described thus: Tmax in C57BL/6 mouse at 30 mg/kg, po measured for 24 hrs by HPLC analysis. Type of data set: ADME, organism-based. The following applies: in vivo.
In data set [26] the target is T6, Galectin-8. Nature of the data set: Inhibition of N-terminal human galectin-8 by competitive fluorescence polarization assay.
The target of data set [27] is T4, Galectin-3. Briefly: Inhibition of human galectin-3 by competitive fluorescence polarization assay.
A short description of data set [28]: AUC (infinity) in C57BL/6 mouse at 30 mg/kg, po measured for 24 hrs by HPLC analysis. The class given is ADME, organism-based. The conditions noted are these: in vivo.
A short description of data set [29]: Cmax in C57BL/6 mouse at 30 mg/kg, po measured for 24 hrs by HPLC analysis. The class given is ADME, organism-based. The following applies: in vivo.
Data set [30] in a line: Stability in mouse hepatocytes assessed as hepatic intrinsic clearance at 2 uM measured per million cells for 15 to 120 mins by LC-MS/MS analysis. The class given is ADME, cell-based, Hepatocyte. The conditions noted are these: time 15-120 min, read-out: CLH.
For data set [31], the target named is T5, Galectin-1. Briefly: Binding affinity to mouse galectin-1 assessed as dissociation constant by fluorescein probe based fluorescence polarization assay.
The nature of data set [32]: Oral bioavailability in C57BL/6 mouse at 30 mg/kg measured for 24 hrs by HPLC analysis. The class given is ADME, organism-based. The conditions noted are these: in vivo.
For data set [33], the target named is T1, Galectin-1. Nature of the data set: Binding affinity to CM3 chip-immobilized full-length human galectin-1 assessed as dissociation constant by SPR analysis.
Data set [34] has as its target T7, Galectin-9. Briefly: Inhibition of N-terminal human galectin-9 by competitive fluorescence polarization assay.

Structures are written as SMILES. Calls of active or inactive are those of the source. The rule behind the calls is not given here.

T1 sequence (P09382 whole entry): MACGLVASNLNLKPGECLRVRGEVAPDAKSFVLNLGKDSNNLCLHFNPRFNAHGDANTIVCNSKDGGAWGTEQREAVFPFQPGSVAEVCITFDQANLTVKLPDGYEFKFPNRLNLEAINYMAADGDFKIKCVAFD
T4 sequence (P17931 whole entry): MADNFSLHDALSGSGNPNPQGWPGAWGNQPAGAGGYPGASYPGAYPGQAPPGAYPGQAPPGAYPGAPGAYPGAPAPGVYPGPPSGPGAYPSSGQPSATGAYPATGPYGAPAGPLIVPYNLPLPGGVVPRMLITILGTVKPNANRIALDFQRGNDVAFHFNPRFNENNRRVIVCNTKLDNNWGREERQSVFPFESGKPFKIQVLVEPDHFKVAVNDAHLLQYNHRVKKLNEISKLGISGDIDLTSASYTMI
T2 sequence (P16110 whole entry): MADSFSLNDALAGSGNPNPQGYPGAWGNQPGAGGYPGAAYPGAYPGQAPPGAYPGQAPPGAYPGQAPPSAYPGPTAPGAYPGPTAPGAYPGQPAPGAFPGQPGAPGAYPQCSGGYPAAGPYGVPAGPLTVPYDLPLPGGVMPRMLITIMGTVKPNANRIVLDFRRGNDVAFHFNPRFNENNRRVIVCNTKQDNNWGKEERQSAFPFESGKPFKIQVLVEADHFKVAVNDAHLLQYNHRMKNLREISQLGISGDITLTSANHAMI

As to `Nc1csc(-c2cn([C@@H]3[C@@H](O)[C@@H](Sc4cc(Cl)c(F)c(Cl)c4)O[C@H](CO)[C@@H]3O)nn2)n1`, in data set [1], the efflux ratio at 1.5 h, 10 µM came out at 14. For the same compound, the Papp A→B at 1.5 h, 10 µM in data set [2] was 3.1 ×10⁻⁶ cm/s. The Kd in [3] came out at 0.62 µM. The compound also came in with a logD at 1 h in data set [4] of 2.5. Besides, the Papp B→A at 1.5 h, 10 µM in data set [5] is 42 ×10⁻⁶ cm/s.
As for `OC[C@H]1O[C@H](Sc2ccc(Cl)c(Cl)c2)[C@H](O)[C@@H](n2cc(-c3csc(O)n3)nn2)[C@H]1O`, the efflux ratio at 1.5 h, 10 µM in data set [1] was above 23. For the same compound, in data set [2], the Papp A→B at 1.5 h, 10 µM is below 1.5 ×10⁻⁶ cm/s. The Kd in data set [3] worked out at 0.337 µM. The Papp B→A at 1.5 h, 10 µM in data set [5] turned out to be 35 ×10⁻⁶ cm/s.
`CO[C@@H]1[C@@H](n2cc(-c3csc(O)n3)nn2)[C@@H](O)[C@@H](CO)O[C@@H]1Sc1ccc(Cl)c(Cl)c1`: the Kd in data set [6] is 8.2 µM; in [8], 92.7 µM; in data set [9], 0.46 µM; in data set [11] it was 20.5 µM; in [12], 4.2 µM; in data set [16], 15 µM. Moreover, the Kd in [17] turned out to be 0.09 µM; in data set [19], 92.4 µM; in [24], 17.5 µM; in data set [26], 80.6 µM; in data set [27] it was 6 µM; in [31], 0.072 µM. Also, the results for the Kd in data set [33] and in data set [34] were 0.08 µM and 18.6 µM, respectively. Further, the inhibition result in data set [7] is “Active”. Besides, the result in data set [10] was Active. The Papp A→B at 1.5 h, 10 µM in data set [2] was 4 ×10⁻⁶ cm/s. The hepatocyte CLint at 2 µM in data set [13] and in [30] was below 1.5 µL/min/1e6 cells throughout. The same compound displayed a clearance in data set [14] of 3.7 mL/min/kg. Also, the IC50 was 0.85 µM in [15] and above 8 µM in [23]. Besides, the Activity in [18] turned out to be 48%. Further, the fraction unbound at 5 h, 1 µM in [20] came to 0.005; in [22], 0.007. Further, in [21], the Vd was 0.4 L/kg. Moreover, the Tmax in [25] is 2 h. Besides, in data set [4], the logD at 1 h worked out at 3.2. Besides, the area under the curve AUC(0-inf) in [28] came out at 148 µg·h/mL. Moreover, in data set [29], the Cmax turned out to be 19500 ng/mL. In addition, the bioavailability in data set [32] is above 99.9%. Moreover, the Papp B→A at 1.5 h, 10 µM in [5] worked out at 48 ×10⁻⁶ cm/s.
Turning to `CN(C)c1nc(-c2cn([C@@H]3[C@@H](O)[C@@H](Sc4cc(Cl)c(F)c(Cl)c4)O[C@H](CO)[C@@H]3O)nn2)cs1`, the efflux ratio at 1.5 h, 10 µM in [1] is 87. Further, the Papp A→B at 1.5 h, 10 µM in data set [2] was determined as 0.6 ×10⁻⁶ cm/s. Moreover, in [3], the Kd turned out to be 3.43 µM. This compound had a logD at 1 h in data set [4] of 3.8. Moreover, the Papp B→A at 1.5 h, 10 µM in data set [5] amounted to 52 ×10⁻⁶ cm/s.
In the same order, the values of `OC[C@H]1O[C@H](Sc2cc(Cl)c(F)c(Cl)c2)[C@H](O)[C@@H](n2cc(-c3csc(O)n3)nn2)[C@H]1O` are 117, 0.3 ×10⁻⁶ cm/s, 0.08 µM, 2.8 and 35 ×10⁻⁶ cm/s.
In the case of `CO[C@@H]1[C@@H](n2cc(-c3csc(O)n3)nn2)[C@@H](O)[C@@H](CO)O[C@@H]1Sc1cc(Cl)c(F)c(Cl)c1`, the efflux ratio at 1.5 h, 10 µM in [1] was found to be 63. In addition, the apical-to-basolateral permeability (Papp A→B) at 1.5 h, 10 µM in data set [2] stood at 0.9 ×10⁻⁶ cm/s. Besides, the hepatocyte CLint at 2 µM was 2.5 µL/min/1e6 cells in data set [13] and below 1.5 µL/min/1e6 cells in data set [30]. Besides, the Kd came to 0.034 µM in data set [3] and 0.043 µM in [31]. In addition, in [4], the logD at 1 h amounted to 3.3. Besides, the Papp B→A at 1.5 h, 10 µM in data set [5] came out at 57 ×10⁻⁶ cm/s.
Regarding `OC[C@H]1O[C@H](Sc2cc(Cl)c(F)c(Cl)c2)[C@H](O)[C@@H](n2cc(-c3cscn3)nn2)[C@H]1O`, in [1], the efflux ratio at 1.5 h, 10 µM was 3.4. Moreover, the Papp A→B at 1.5 h, 10 µM in [2] was found to be 8.8 ×10⁻⁶ cm/s.
As for `CNc1nc(-c2cn([C@@H]3[C@@H](O)[C@@H](Sc4cc(Cl)c(F)c(Cl)c4)O[C@H](CO)[C@@H]3O)nn2)cs1`, the efflux ratio at 1.5 h, 10 µM in [1] is above 192. Further, the Papp A→B at 1.5 h, 10 µM in data set [2] is below 0.24 ×10⁻⁶ cm/s. For the same compound, in data set [3], the Kd turned out to be 1.36 µM. The compound further registered a logD at 1 h in data set [4] of 2.9. Moreover, the Papp B→A at 1.5 h, 10 µM in data set [5] amounted to 46 ×10⁻⁶ cm/s.
